Values after ≈ are worked out from the molar mass of the structure shown. Read-outs that look alike come from different tables or passages of the source. Bridge positions count the residues as written; N and C are the ends. Square brackets hold non-standard residues; d marks the D form. Peptide text beside a SMILES is read from it. I, II: the chains in the order shown. Ahx = NCCCCCC(=O)O
Experiments:
[1] = test system: MDA-MB 231 breast cancer cells; conditions: peptide 100 µg/mL (30 µM); earlier work, ref not given; cited from earlier work
Description: (§1) Breast cancer is the most common cancer type diagnosed worldwide. There are 2.1 million cases annually, and 627,000 deaths of women due to this disease were reported in 2018 [5]. […] However, when this motif was modified or included in longer sequences, the cytotoxic effect against human cancer cell lines increased. In ...

[2] = test system: MDA-MB 468 breast cancer cells; conditions: peptide 100 µg/mL (30 µM); earlier work, ref not given; cited from earlier work
Description: as §1

HTB-132 cell line [3] = assay: MTT viability test, HTB-132 cells; assay type: cell-based, human; conditions: for IC50, cytotoxic effect, HTB-132: 24 h at 37 °C, mean of n = 3
Description: (§2) For all cell lines, the medium used was Dulbecco’s Modified Eagle’s Medium (DMEM)/Nutrient Mixture F-12 Ham. For the HTB-132, MCF-7, and MCF-12A lines, the medium was supplemented with 10% fetal bovine serum (SFB), and 1.5 g/L NaHCO3 and NaOH were added up to pH 7.4, amphotericin (200 μg/mL), and 1% penicillin and streptomycin. For the primary culture cells of bovine mammary epithelium and fibroblasts, in addition to the above, hydrocortisone (250 μg/mL) was added. All media were filtered through a 0.22 μm membrane.
(§3) Briefly, the cells were seeded with a complete medium in 96-well plates at a rate of 10,000 cells and 100 µL per well, and adhesion to the plates was allowed for 24 h. Subsequently, the complete medium was removed and an incomplete medium was added for synchronization for another 24 h. The cells were then incubated at 37 °C for 2, 24, or 48 h with 100 μL of peptide at the concentrations to be evaluated (200, 100, 50, 25, 12.5, 6.25 and 3.1 μg/mL). Next, the peptide was removed from the box, and 100 µL of incomplete medium with 10% 3-4,5-dimethylthiazol-2-yl-2,5-diphenyltetrazole (MTT) bromide was added and incubated for 4 h. The medium was replaced with 100 μL of isopropanol (IPA), and after 30 min of incubation at 37 °C, the absorbance was measured at 575 nm. As a negative control, an incomplete culture medium with 10% MTT was used, and as a positive control, cells without MTT treatment were used.

HTB-132 cell line [4] = assay: MTT viability test, HTB-132 cells; assay type: cell-based, human; conditions: 24 h, concentration range 1–100 µg/mL
Stability during storage = assay type: physicochemical; conditions: Met residue prone to oxidation; Supplementary Figure S1
MCF-7 cell line = assay: MTT viability test, MCF-7 cells; assay type: cell-based, human
Description: as §2, §3

MCF-7 cells [5] = assay: Mitochondrial membrane depolarization, JC-1 flow cytometry; assay type: cell-based, human; conditions: MCF-7, peptide 15 µM
Description: For this test, the MitoProbeTM JC-1 Assay kit (M34152 from Termofisher, Walthan, MA, USA) was used according to the supplier’s recommendations. The cells seeded and synchronized in a box of 24 wells (4 × 10^4 cells/well) were incubated with 400 μL of peptide to be evaluated at 2 and 24 h. The cells were then trypsinized and collected by centrifugation at 400 g × 5 min. The resulting pellet was stained by adding 100 μL of JC1 “working solution” (1:100 JCI solution reconstituted in DMSO: buffer assay 1×) and incubated at 37 °C for 20 min. Subsequently, the cells were washed twice with 1× buffer assay and finally resuspended in 100 μL of 1× buffer assay for reading on the cytometer. Negative control: cells without treatment; positive control: cells treated with 10 μM actinomycin for 24 h.

MCF-7 cells [6] = assay: Integrity of the cytoplasmic membrane, SYTO9/PI flow cytometry; assay type: cell-based, human; conditions: MCF-7, peptide 15 µM, PI and SYTO9
Description: The cells with complete medium were seeded and synchronized in boxes of 24 wells in a concentration of 4 × 10^4 cells/well in a volume of 400 μL/well, and adhesion to the plate was allowed for 24 h [52]. Then the complete medium was replaced by incomplete medium for synchronization of the cells for an additional 24 h. […] The cells were harvested by adding 200 μL of trypsin and incubating for 10 min. The trypsin was quenched with 200 µL of complete medium, and the cells were centrifuged at 2500 rpm for 10 min. The supernatant was discarded, and the pellet was washed with 100 µL PBS and centrifuged under the same conditions previously described. The supernatant was discarded, and the cells were stained with 30 μL of a solution from the LIVE/DEAD® FungaLigthTM commercial kit (Invitrogen) containing the mixture of fluorochromes (0.5 μL of SYTO9 and/or 0.5 μL of propidium iodide (PI) with 99 μL of PBS). Subsequently, the cells were incubated at room temperature and in the dark for 20 min and centrifuged, and the supernatant was discarded. The pellet was resuspended in 100 μL of PBS and analyzed via flow cytometry in a BD Accuri C6 device. The events were recorded using the green channel (FL1) on the abscissa axis and the red (FL3) on the ordinate axis. Negative control: untreated cells marked with both fluorophores; positive control: cells treated with actinomycin 10 μg/mL for 24 h [52]. […]

MCF-12 cell line = assay type: cell-based, human
Description: as §2, §3

MCF-7 cells [7] = assay: Type of cell death (apoptosis/necrosis), Annexin V/PI flow cytometry; assay type: cell-based, human; conditions: MCF-7, peptide 15 µM, 24 h, annexin V and PI
Description: The cells were seeded and synchronized in boxes of 24 wells at a concentration of 4 × 10^4 cells/well in 400 μL/well, adhesion and synchronization were allowed in the same way as in Section 4.8, and the culture medium was replaced with medium containing the peptide to be evaluated and incubated for 2 or 24 h. Subsequently, the cells were harvested with trypsin, centrifuged at 2500 rpm for 10 min, washed with PBS, and resuspended in 10 μL of staining buffer with the fluorochromes (10 mM Hepes pH 7.4; 10 mM NaCl and 2.5 mM CaCl2 containing 1 μL of PI fluorochrome and 1 μL of Annexin V). Cells with the fluorochromes were incubated at 37 °C in the dark for 15 min and resuspended in 80 μL of staining buffer without fluorochromes for analysis via flow cytometry. The positive control of necrosis was: cells treated with EDTA 15 mM for 60 min, and apoptotic: cells treated with Actinomycin at 10 μM for 24 h. Negative control: cells without treatment; compensation controls: (i) cells stained only with Annexin, and (ii) only with PI; population control: unstained and untreated cells.

[8] = test system: breast cancer cell lines HTB-132 and MCF-7; assay type: cell-based, human; conditions: 24 h
Description: as §3

MCF-7 cells [9] = assay: Cell morphology and size by inverted microscope; assay type: cell-based, human; conditions: MCF-7, 90 min of treatment, 37 °C; from 100.27 μm before; average of 100 measurements; Figure 3: 100 µg/mL
Description: Cell morphology was monitored before and after treatment with ^26[L] or ^26[F] at different times, using an inverted microscope coupled to an AxioCam ICc1 camera (Figure 3). The untreated cells had normal morphologic characteristics as polygonal, flattened, and elongated cells with long and defined axons (data not shown). After 5 min of treatment with the peptide, most cells retained their morphology; however, some began to appear rounded and shrunken. After 90 min, the cells treated with the peptide (^26[L] or ^26[F]) took on a rounded shape, and shrinkage was observed, going from an average size of 100.27 μm to 39.38 µm. […] At 24 h of treatment, the appearance of small vacuoles was observed, presumably associated with late apoptosis events. Finally, it was observed that the effect of the peptide was sustained up to 48 h since at that time no recovery of cell morphology was observed.
Figure 3 Micrography of MCF-7 cells treated with peptide ^26[F] at 100 µg/mL. The cells were incubated in the absence (A) or the presence of the peptide at (B) 5 min, (C) 90 min, (D) 240 min, (E) 24 h, and (F) 48 h at 37 °C. The cell size was determined as an average of 100 measurements, using an AxioCam ICc1 camera.

[10] = MTT, 24 h at 37 °C, three independent experiments with n = 4 each

## CSCC[C@H](NC(=O)[C@H](CCCNC(=N)N)NC(=O)[C@H](Cc1c[nH]c2ccccc12)NC(=O)[C@H](CCC(N)=O)NC(=O)[C@H](Cc1c[nH]c2ccccc12)NC(=O)[C@H](CCCNC(=N)N)NC(=O)[C@@H](N)CCCNC(=N)N)C(=O)N[C@@H](CCCCN)C(=O)N[C@@H](CCCCN)C(=O)N[C@@H](CC(C)C)C(=O)NCC(=O)NCCCC[C@H](NC(=O)CNC(=O)[C@H](CC(C)C)NC(=O)[C@H](CCCCN)NC(=O)[C@H](CCCCN)NC(=O)[C@H](CCSC)NC(=O)[C@H](CCCNC(=N)N)NC(=O)[C@H](Cc1c[nH]c2ccccc12)NC(=O)[C@H](CCC(N)=O)NC(=O)[C@H](Cc1c[nH]c2ccccc12)NC(=O)[C@H](CCCNC(=N)N)NC(=O)[C@@H](N)CCCNC(=N)N)C(=O)NCCCCCC(N)=O [^26[M], (RRWQWRMKKLG)2-K-Ahx] (I: H-RRWQWRMKKLGK[Ahx]-NH2 / II: H-RRWQWRMKKLG; amide I:12-II:C)
[1]
  cellular viability, MDA-MB 231: ~ 0%
  cytotoxic effect, MDA-MB 231: ~100%
[2]
  cellular viability, MDA-MB 468: ~ 0%
  cytotoxic effect, MDA-MB 468: ~100%
HTB-132 cell line [3]; MTT
  IC50, cytotoxic effect, HTB-132: 96 µg/mL (≈ 29 µM)
HTB-132 cell line [4]
  cytotoxic effect at the maximum evaluated concentration, HTB-132: ~55%
Stability during storage
  stability during storage (in words): stability problems
MCF-7 cell line; MTT, 24 h
  cytotoxic effect against MCF-7 (in words): does not exhibit a significant cytotoxic effect
MCF-7 cell line; [10]
  IC50, cytotoxic effect, MCF-7: > 200 µg/mL
MCF-7 cell line; MTT, 24 h at 37 °C, three independent experiments with n = 4 each, read-out: IC50, cytotoxic effect, MCF-7
  IC50: > 60 µM

## CC(C)C[C@H](NC(=O)[C@H](CCCCN)NC(=O)[C@H](CCCCN)NC(=O)[C@H](Cc1ccccc1)NC(=O)[C@H](CCCNC(=N)N)NC(=O)[C@H](Cc1c[nH]c2ccccc12)NC(=O)[C@H](CCC(N)=O)NC(=O)[C@H](Cc1c[nH]c2ccccc12)NC(=O)[C@H](CCCNC(=N)N)NC(=O)[C@@H](N)CCCNC(=N)N)C(=O)NCC(=O)NCCCC[C@H](NC(=O)CNC(=O)[C@H](CC(C)C)NC(=O)[C@H](CCCCN)NC(=O)[C@H](CCCCN)NC(=O)[C@H](Cc1ccccc1)NC(=O)[C@H](CCCNC(=N)N)NC(=O)[C@H](Cc1c[nH]c2ccccc12)NC(=O)[C@H](CCC(N)=O)NC(=O)[C@H](Cc1c[nH]c2ccccc12)NC(=O)[C@H](CCCNC(=N)N)NC(=O)[C@@H](N)CCCNC(=N)N)C(=O)NCCCCCC(N)=O [^26[F], (RRWQWRFKKLG)2-K-Ahx] (I: H-RRWQWRFKKLGK[Ahx]-NH2 / II: H-RRWQWRFKKLG; amide I:12-II:C)
MCF-7 cells [5]
  population with depolarization of the mitochondrial membrane: 19%
HTB-132 cell line [3]; MTT, 24 h
  cytotoxic effect against HTB-132 compared with ^26[M] (in words): greater cytotoxic effect against cancer cells than the original peptide
HTB-132 cell line [3]; MTT
  IC50, cytotoxic effect, HTB-132: 43 µg/mL (≈ 12.9 µM)
HTB-132 cell line [3]; human, 24 h, pH 7.4
  IC50: 13 µM
MCF-7 cells [6]
  cell population with cytoplasmic membrane affected: 10%
MCF-12 cell line
  cytotoxic effect against MCF-12 compared with HTB-132 and MCF-7 (in words): lower cytotoxic effect against MCF-12 cells than against breast cancer cell lines
MCF-12 cell line; 24 h
  IC50: 21 µM
MCF-12 cell line; MTT, 24 h at 37 °C
  IC50, non-tumorigenic cell line MCF-12: 70 µg/mL (≈ 20.9 µM)
MCF-7 cells [7]
  cell population dyed with both fluorophores (apoptotic process): 54%
  cell population dyed with only PI (necrotic process): 21%
MCF-7 cell line; MTT, 24 h
  cytotoxic effect against MCF-7 compared with ^26[M] (in words): greater cytotoxic effect against MCF-7 cells than the peptide
MCF-7 cell line; [10]
  IC50, cytotoxic effect, MCF-7: 19 µg/mL (≈ 5.68 µM)
MCF-7 cell line; MTT, peptide 200 µg/mL, regardless of treatment time (2, 24, 48 h)
  maximum cytotoxic effect, MCF-7: approximately 90%
MCF-7 cell line; human, 24 h, pH 7.4
  IC50: 6 µM
[8]
  IC50: 6 to 13 µM
MCF-7 cells [9]
  average cell size after treatment: 39.38 µm
